Source: the NIST ThermoML archive (doi:10.1021/acs.jced.8b00236)
“And” between values parts separate entries of the source, which are not always exact repeats. Equal entries are not always repeated. Numbers after ± are expanded uncertainties.

How the values were obtained:
[1] = mn = molality of the nth substance listed, in mol/kg; conditions: 75 kPa, Liquid; for viscosity: Capillary tube (Ostwald / Ubbelohde) method; for speed of sound: Frequency=3 MHz, Single path-length method; for mass density: Vibrating tube method
[2] = 75 kPa, Liquid, Capillary tube (Ostwald / Ubbelohde) method

[Cl-].[Na+] [sodium chloride] + O
[1]
Conditions | mass density, m1 = 0.15 | mass density, m1 = 0.25 | speed of sound, m1 = 0.15 | speed of sound, m1 = 0.25 | viscosity, m1 = 0.15 | viscosity, m1 = 0.25 [mPa·s]
288.15 K | 1005.46 ± 0.3 kg/m3 and 1005.45 ± 0.3 kg/m3 and 1005.36 ± 0.3 kg/m3 | 1009.51 ± 0.3 kg/m3 | 1476.6 ± 4 m/s and 1476.5 ± 4 m/s | 1483.6 ± 4 m/s and 1483.4 ± 4 m/s and 1483.3 ± 4 m/s | 1.156 ± 0.024 mPa·s and 1.158 ± 0.024 mPa·s | 1.166 ± 0.024
293.15 K | 1004.48 ± 0.3 kg/m3 [middle of 4 runs] | 1008.5 ± 0.3 kg/m3 and 1008.51 ± 0.3 kg/m3 | 1492.3 ± 4 m/s and 1492.2 ± 4 m/s | – | 1.016 ± 0.021 mPa·s | 1.025 ± 0.021
298.15 K | 1003.26 ± 0.3 kg/m3 and 1003.27 ± 0.3 kg/m3 and 1003.18 ± 0.3 kg/m3 | 1007.26 ± 0.3 kg/m3 | 1506.2 ± 4 m/s and 1506 ± 4 m/s and 1506.1 ± 4 m/s | 1512.5 ± 4 m/s and 1512.3 ± 4 m/s and 1512.2 ± 4 m/s | 0.905 ± 0.019 mPa·s and 0.9049 ± 0.019 mPa·s and 0.906 ± 0.019 mPa·s | 0.913 ± 0.019
303.15 K | 1001.83 ± 0.3 kg/m3 [middle of 4 runs] | 1005.78 ± 0.3 kg/m3 and 1005.79 ± 0.3 kg/m3 | 1518.2 ± 4 m/s and 1518.1 ± 4 m/s | 1524.3 ± 4 m/s and 1524.1 ± 4 m/s and 1524 ± 4 m/s | 0.811 ± 0.017 mPa·s [middle of 4 runs] | 0.819 ± 0.017
308.15 K | 1000.11 ± 0.3 kg/m3 [middle of 5 runs] | 1004.12 ± 0.3 kg/m3 and 1004.11 ± 0.3 kg/m3 | 1528.7 ± 4 m/s and 1528.6 ± 4 m/s | 1534.3 ± 4 m/s [middle of 5 runs] | 0.731 ± 0.015 mPa·s and 0.7306 ± 0.015 mPa·s and 0.732 ± 0.015 mPa·s | 0.739 ± 0.015

O [water]
[2]
Conditions | viscosity
288.15 K | 1.146 ± 0.024 mPa·s
293.15 K | 1.007 ± 0.021 mPa·s and 1.004 ± 0.021 mPa·s
298.15 K | 0.893 ± 0.019 mPa·s and 0.8929 ± 0.019 mPa·s
303.15 K | 0.797 ± 0.017 mPa·s and 0.7965 ± 0.017 mPa·s
308.15 K | 0.719 ± 0.015 mPa·s and 0.7187 ± 0.015 mPa·s

O [water] + NCC(=O)O
[1], m2 = 0
Conditions | viscosity [mPa·s]
288.15 K | 1.146 ± 0.024
293.15 K | 1.007 ± 0.021
298.15 K | 0.893 ± 0.019
303.15 K | 0.797 ± 0.017
308.15 K | 0.719 ± 0.015

O [water] + NCCC(=O)O
[1], m2 = 0
Conditions | viscosity [mPa·s]
288.15 K | 1.146 ± 0.024
293.15 K | 1.004 ± 0.021
298.15 K | 0.8929 ± 0.019
303.15 K | 0.7965 ± 0.017
308.15 K | 0.7187 ± 0.015

O [water] + NCCCC(=O)O
[1], m2 = 0
Conditions | viscosity [mPa·s]
288.15 K | 1.146 ± 0.024
293.15 K | 1.004 ± 0.021
298.15 K | 0.893 ± 0.019
303.15 K | 0.797 ± 0.017
308.15 K | 0.719 ± 0.015

O [water] + NCCCCC(=O)O
[1], m2 = 0
Conditions | viscosity [mPa·s]
288.15 K | 1.146 ± 0.024
293.15 K | 1.004 ± 0.021
298.15 K | 0.893 ± 0.019
303.15 K | 0.797 ± 0.017
308.15 K | 0.719 ± 0.015

O [water] + NCCCCCC(=O)O
[1], m2 = 0
Conditions | viscosity [mPa·s]
288.15 K | 1.146 ± 0.024
293.15 K | 1.004 ± 0.021
298.15 K | 0.893 ± 0.019
303.15 K | 0.797 ± 0.017
308.15 K | 0.719 ± 0.015
